Test results reported in patent US20120083501A1, “COMPOUNDS FOR TREATING NEURODEGENERATIVE DISEASES” (priority 2010, published 2012).

These molecules were tested against T1, BACE1 (Homo sapiens, UniProt P56817) (assay: Cellular BACE1 Inhibition Assay (in vitro cellular Amyloidβ 1-40 production, HTRF immunoassay)). Conditions: inhibition of Amyloidβ 1-40 production; HEK-293 cells stably transfected with wild type APP695; 48 hours incubation; single assay or mean of multiple assays.
T1 construct: endogenous in cells; host or cells: HEK-293 cells stably transfected with wild type APP695
T1 sequence (P56817 46-501): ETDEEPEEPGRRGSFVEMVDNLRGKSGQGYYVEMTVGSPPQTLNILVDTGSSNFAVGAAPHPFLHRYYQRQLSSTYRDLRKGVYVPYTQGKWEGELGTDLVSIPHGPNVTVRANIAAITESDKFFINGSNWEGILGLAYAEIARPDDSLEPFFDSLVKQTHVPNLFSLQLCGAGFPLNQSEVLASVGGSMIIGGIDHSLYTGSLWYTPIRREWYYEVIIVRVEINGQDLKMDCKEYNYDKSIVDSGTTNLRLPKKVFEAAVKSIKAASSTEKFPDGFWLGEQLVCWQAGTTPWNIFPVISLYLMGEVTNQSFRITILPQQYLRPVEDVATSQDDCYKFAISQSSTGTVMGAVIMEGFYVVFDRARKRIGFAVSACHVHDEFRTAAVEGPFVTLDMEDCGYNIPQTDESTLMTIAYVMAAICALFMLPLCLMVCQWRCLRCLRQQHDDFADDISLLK
Assay type: cell-based
Experimental: The BACE inhibition properties of the compounds of the invention may be determined by the following in vitro cellular Amyloidβ 1-40 production assay.
Inhibition of Amyloidβ 1-40 production was determined by incubating cells with compound for 48 hours and quantifying the level of Amyloidβ 1-40 using an homogeneous time-resolved fluorescence (“HTRF”) immunoassay.
Materials and Methods: HEK-293 cells stably transfected with a DNA construct containing the coding sequence for the wild type APP695 sequence were grown in Dulbecco's Modified Eagle Medium (“DMEM”) supplemented with 10% fetal bovine serum, penicillin/streptomycin and 150 μg/mL G418. Cells were plated in 96-well plates at 35,000 cells/well and allowed to attach for 8-12 hours. Media was changed to DMEM supplemented with 10% fetal bovine serum, penicillin/streptomycin 15 minutes prior to compound addition. Diluted compounds were then added at a final concentration of 0.5% DMSO. After 48 hours, 4 μL of media from each well was added to a corresponding well of a 384 well plate (Perkin Elmer Cat#6008280) containing the HTRF reagents. HTRF reagents were obtained from the CisBio Amyloidβ 1-40 peptide assay kit (Cat# 62B40PEC) and were prepared as follows anti-peptide β (1-40)-Cryptate and anti-peptide β (1-40)-XL655 were stored in 2 plate aliquots at −80° C. Diluent and Reconstitution buffer were stored at 4° C. Aliquots of the two antibodies were diluted 1:100 with Reconstitution buffer, and this mixture was diluted 1:2 with Diluent. 12 μL of the reagent mixture was added to the required wells of the 384 well assay plate. The assay plate was incubated at 4° C. for 17 hours and then analyzed for fluorescence at 665 and 620 nm. The reported IC50 below may be from a single assay or the mean of multiple assays.

SMILES | IC50 [nM]
CN1C(=O)C2(N=C1N)c1cc(-c3cccc(OC(F)F)c3)ccc1OC1CC(F)(F)CCC12 (stereo not drawn) [Example 36, 2-amino-7′-(3-(difluoromethoxy)phenyl)-3′,3′-difluoro-1-methyl-1′,2′,3′,4′,4a′,9a′-hexahydrospiro[imidazole-4,9′-xanthen]-5(1H)-one] | 221
CN1C(=O)C2(N=C1N)c1cc(-c3cccnc3F)ccc1OC1CCC(F)(F)CC12 (stereo not drawn) [Example 41, 2-amino-2′,2′-difluoro-7′-(2-fluoropyridin-3-yl)-1-methyl-1′,2′,3′,4′,4a′,9a′-hexahydrospiro[imidazole-4,9′-xanthen]-5(1H)-one] | 41.4
CN1C(=O)[C@]2(N=C1N)c1cc(-c3cncc(C#N)c3)ccc1O[C@H]1CCCO[C@@]12C [Example 86, 5-((4S,4a′S,10a′R)-2-amino-1,10a′-dimethyl-5-oxo-1,3′,4′,4a′,5,10a′-hexahydro-2′H-spiro[imidazole-4,10′-pyrano[3,2-b]chromen]-8′-yl)nicotinonitrile] | 4.6
CN1C(=O)[C@]2(N=C1N)c1cc(-c3cccnc3F)ccc1O[C@H]1CCOCC12F (stereo partly drawn) [Example 99, (4R,4a′S)-2-amino-10a′-fluoro-8′-(2-fluoropyridin-3-yl)-1-methyl-3′,4′,4a′,10a′-tetrahydro-1′H-spiro[imidazole-4,10′-pyrano[4,3-b]chromen]-5(1H)-one] | 241
COc1ccc2c(c1)C1(N=C(N)N(C)C1=O)[C@H]1COCC[C@@H]1C2 (stereo partly drawn) [Example 107, (4aS,10aS)-2′-amino-8-methoxy-1′-methyl-1,3,4,4a,5,10a-hexahydrospiro[benzo[g]isochromene-10,4′-imidazol]-5′(1′H)-one] | 801

Now those with a lower IC50, led by results:

IC50 [nM] | SMILES
4.3 | CN1C(=O)[C@]2(N=C1N)c1cc(-c3cncc(C#N)c3)ccc1O[C@H]1CCCO[C@@H]12 [Example 79, 5-((4S,4a′S,10a′R)-2-amino-1-methyl-5-oxo-1,3′,4′,4a′,5,10a′-hexahydro-2′H-spiro[imidazole-4,10′-pyrano[3,2-b]chromen]-8′-yl)nicotinonitrile]
3.9 | CN1C(=O)C2(N=C1N)c1cc(-c3cccnc3F)ccc1O[C@H]1CC(O)CC[C@@H]12 (stereo partly drawn) [Example 96, (4a′S,9a′R)-2-amino-7′-(2-fluoropyridin-3-yl)-3′-hydroxy-1-methyl-1′,2′,3′,4′,4a′,9a′-hexahydrospiro[imidazole-4,9′-xanthen]-5(1H)-one]
1.5 | CN1C(=O)[C@]2(N=C1N)c1cc(-c3cncc(Cl)c3)ccc1O[C@H]1CCCO[C@@H]12 [Example 78, (4S,4a′S,10a′R)-2-amino-8′-(5-chloropyridin-3-yl)-1-methyl-3′,4′,4a′,10a′-tetrahydro-2′H-spiro[imidazole-4,10′-pyrano[3,2-b]chromen]-5(1H)-one]
0.8 | CN1C(=O)C2(N=C1N)c1cc(-c3cncc(Cl)c3)ccc1C[C@H]1CCOC[C@@H]12 (stereo partly drawn) [Example 69, (4aS,10aS)-2′-amino-8-(5-chloropyridin-3-yl)-1′-methyl-1,3,4,4a,5,10a-hexahydrospiro[benzo[g]isochromene-10,4′-imidazol]-5′(1′H)-one]
